Experimental findings from patent US5869500A, “Pyridone compounds useful in treating Alzheimer's disease” (Hoffmann-La Roche Inc., priority 1996, dated 1999) are described below.

This assay has as its system Aβ production in HEK cells over-expressing mutated β-APP (SFAD). Kind of assay: Aβ production inhibition, sandwich-ELISA in HEK cells, over-expressed mutated β-APP (SE-SFAD). The assay is classed as cell-based, human. The note with it: for IC50: based on the respective plateau of maximum inhibition; for Emax: maximum inhibition plateau, read-out: SE-SFAD max. inhibition %. How it is done:
The effect of test substances on the inhibition of Aβ-amyloid production can be measured in the supernatant of cell cultures of β-APP expressed cells using ELISA tests or other quantitative determination methods for β-APP degradation products. Typically, 8×10^5 cells (e.g. HEK cells, which express recombinant human β-APP variants) are plated out in each well of a culture dish having 24 wells in growth media such as e.g. OPTIMEM (Gibco) and the test compound is then added. After an incubation period of 24 to 48 hours at 37° C. in a 10% CO2 atmosphere the supernatant is removed from the cell cultures and the β-APP degradation products (e.g. Aβ or β-[…]) are determined with the aid of ELISA (or sandwich ELISA) analysis or by means of quantitative immunoprecipitation (after metabolic radiolabelling of the cell proteins). Typically, 300 μl of the cell supernatant are tested according to the state of the art for ELISA tests in culture dishes having 96 wells. In the case of sandwich ELISA for Aβ, the binding antibody can be directed against the first 16 amino acids of Aβ-peptide (e.g. 6E10 Senetek, Maryland Heights, Mo.) and the detection antibody can be directed against amino acids 17-40 or 17-42 of Aβ and carries a detection system such as e.g. peroxidase. A simple ELISA test with an antibody, e.g. 22C11 (Boehringer Mannheim), can be used as the test for […]; the second antibody can be an anti-(mouse) Ig having a detection system, such as e.g. peroxidase. The peroxidase reaction can be carried out e.g. using a TMB substrate (BioRAD) and the measurements can be carried out at 650 nm using an ELISA reading apparatus. […] SE-SFAD signifies the Aβ production inhibition measured using sandwich-ELISA in HEK cells, SFAD signifies over-expressed mutated β-APP, and SE-WT signifies the Aβ production inhibition measured using sandwich-ELISA in HEK cells which over-express Wild type β-APP. The IC50 values are based on the respective plateau of maximum inhibition.
In general terms: In an ELISA, binding on a coated surface is turned into a signal by an enzyme label.

Where [1] appears, read: Homo sapiens, HEK293, HEK cells.

For `CCN(CCOC)C(=O)c1cc(-c2ccc(C(C)(C)C)cc2)c(=O)n2ccc3ccsc3c12` [Compound 107, 8-(4-tert-Butyl-phenyl)-7-oxo-7H-thieno[2,3-a]quinolizine-10-carboxylicacid ethyl-(2-methoxy-ethyl)-amide], under setting [1], half-maximal inhibition (IC50) was put at 3000 nM and the Emax is 20%. For `C#CCN(C(=O)c1cc(-c2ccccc2OC)c(=O)n2ccc3ccsc3c12)c1ccccc1` [Compound 143, 8-(2-Methoxy-phenyl)-7-oxo-7H-thieno[2,3-a]quinolizine-10-carboxylic acid phenyl-prop-2-ynyl-amide], in that order: 5500 nM and 40 to 100%. As for `O=C1CN(C(=O)c2cc(-c3ccccc3)c(=O)n3ccc4ccsc4c23)C1` [Compound 7, 10-(3-Oxo-azetidin-1-carbonyl)-8-phenyl-thieno[2,3-a]quinolizin-7-one], under setting [1], the half-maximal inhibitory concentration (IC50) – broadly, the midpoint of a concentration-inhibition curve – is 50000 nM and the Emax came out at 100%. For the molecule `COC(=O)c1cc(-c2cccc(C(F)(F)F)c2)c(=O)n2ccccc12` [Compound 17, Methyl 4-oxo-3-(3-trifluoromethyl-phenyl)-4H-quinolizine-1-carboxylate], under setting [1], the concentration for half-maximal inhibition (IC50) was 500 nM and the Emax came to 30%. For `CCCN(CCOC)C(=O)c1cc(-c2ccc(OC)cc2)c(=O)n2ccc3ccsc3c12` [Compound 148, 8-(4-Methoxy-phenyl)-7-oxo-7H-thieno[2,3-a]quinolizine-10-carboxylic acid (2-methoxy-ethyl)-propyl-amide], in that order: 5000 nM and 100%. For `Cn1ccnc1COC(=O)c1cc(-c2ccccc2)c(=O)n2ccc3ccsc3c12` [Compound 27, 1-Methyl-1H-imidazol-2-yl-methyl 7-oxo-8-phenyl-7H-thieno[2,3-a]-quinolizine-10-carboxylate methanesulphonate], in that order: 50000 nM and 100%. On the same counts, the results for `CCN(CC)Cc1cccc(COC(=O)c2cc(-c3ccccc3)c(=O)n3ccc4ccsc4c23)c1` [Compound 60, 3-Diethylamino-methyl-benzyl 7-oxo-8-phenyl-7H-thieno[2,3-a]-quinolizine-10-carboxylate methanesulphonate] are 1200 nM and 100%.

Turning to `CCOC(=O)c1cc(-c2ccc(-c3ccccc3)cc2)c(=O)n2ccc3ccsc3c12` [Compound 94, Ethyl 8-(biphenyl-4-yl)-7-oxo-7H-thieno[2,3-a]quinolizine-10-carboxylate], the Emax under setting [1] fell in the range of 20 to 40%. For `COCCN(C(=O)c1cc(-c2ccc(OCc3ccccc3)cc2)c(=O)n2ccc3cc(C(C)O)sc3c12)c1ccccc1` (racemic) [Compound 75, (RS)-8-(4-Benzyloxy-phenyl)-2-(1-hydroxy-ethyl)-7-oxo-7H-thieno[2,3-a]quinolizine-10-carboxylic acid (2-methoxy-ethyl)-phenyl-amide], under setting [1], half-maximal inhibition (IC50) required 1300 nM and the Emax came out at 100%. For `CCCc1cc2ccn3c(=O)c(-c4ccc(OCc5ccccc5)cc4)cc(C(=O)N(CCOC)c4ccccc4)c3c2s1` [Compound 79, 8-(4-Benzyloxy-phenyl)-2-propyl-7-oxo-7H-thieno[2,3-a]quinolizine-10-carboxylic acid (2-methoxy-ethyl)-phenyl-amide], the Emax under setting [1] fell in the range of 20 to 35%. Regarding `COCCNC(=O)c1cc(-c2ccc(OCc3ccccc3)cc2)c(=O)n2ccc3ccsc3c12` [Compound 66, 8-(4-Benzyloxy-phenyl)-7-oxo-7H-thieno[2,3-a]quinolizine-10-carboxylic acid (2-methoxy-ethyl)-amide], under setting [1], 22000 nM corresponded to half-maximal inhibition (IC50) and the Emax was determined as 60%. For `COc1ccccc1-c1cc(C(=O)NCc2ccccc2)c2c3sccc3ccn2c1=O` [Compound 135, 8-(2-Methoxy-phenyl)-7-oxo-7H-thieno[2,3-a]quinolizine-10-carboxylic acid benzyl-amide], in that order: 3000 nM and 100%.

For `C#CCN(C(=O)c1cc(-c2cccc(OC)c2)c(=O)n2ccc3ccsc3c12)c1ccccc1` [Compound 127, 8-(3-Methoxy-phenyl)-7-oxo-7H-thieno[2,3-a]quinolizine-10-carboxylic acid phenyl-prop-2-ynyl-amide], under setting [1], the concentration for half-maximal inhibition (IC50) stood at 800 nM and the Emax was 100%.

For the molecule `COCCNC(=O)c1cc(-c2ccc(C(C)(C)C)cc2)c(=O)n2ccc3ccsc3c12` [Compound 110, 8-(4-tert-Butyl-phenyl)-7-oxo-7H-thieno[2,3-a]quinolizine-10-carboxylicacid (2-methoxy-ethyl)-amide], under setting [1], the 50% inhibitory concentration (IC50) stood at 6200 nM and the Emax turned out to be 95%. For `COCCN(C(=O)c1cc(-c2ccc(OCc3ccccc3)cc2)c(=O)n2ccc3cc(C)sc3c12)c1ccccc1` [Compound 74], in that order: 300 nM and 100%. With `COC(=O)c1cc(-c2ccccc2OC)c(=O)n2ccc3ccsc3c12` [Compound 114, Methyl 8-(2-methoxy-phenyl)-7-oxo-7H-thieno[2,3-a]quinolizine-10-carboxylate], 6300 nM corresponded to half-maximal inhibition (HEK cells) (IC50). Further, under setting [1], the Emax is 70%.

With `CCN(CCOC)C(=O)c1cc(-c2ccccc2OC)c(=O)n2ccc3ccsc3c12` [Compound 122, 8-(2-Methoxy-phenyl)-7-oxo-7H-thieno[2,3-a]quinolizine-10-carboxylic acidethyl-(2-methoxy-ethyl)-amide], under setting [1], the IC50 stood at 8000 nM and the Emax was 25%. On the same counts, the results for `COCCN(Cc1ccco1)C(=O)c1cc(-c2ccccc2OC)c(=O)n2ccc3ccsc3c12` [Compound 139, 8-(2-Methoxy-phenyl)-7-oxo-7H-thieno[2,3-a]quinolizine-10-carboxylic acid (furan-2-yl-methyl)-(2-methoxy-ethyl)-amide] are 3300 nM and 100%.

For `COCCN(CC1CC1)C(=O)c1cc(-c2ccc(C(C)(C)C)cc2)c(=O)n2ccc3ccsc3c12` [Compound 112, 8-(4-tert-Butyl-phenyl)-7-oxo-7H-thieno[2,3-a]quinolizine-10-carboxylicacid cyclopropylmethyl-(2-methoxy-ethyl)-amide], under setting [1], 1500 nM corresponded to half-maximal inhibition (IC50) and the Emax came out at 100%. As to `O=C(c1cc(-c2ccc(OCc3ccccc3)cc2)c(=O)n2ccc3ccsc3c12)N(CCO)c1ccccc1` [Compound 73, 8-(4-Benzyloxy-phenyl)-7-oxo-7H-thieno[2,3-a]quinolizine-10-carboxylic acid (2-hydroxy-ethyl)-phenyl-amide], under setting [1], the midpoint of inhibition, the IC50, lay at 1300 nM and the Emax worked out at 55%. As for `CCc1cc2ccn3c(=O)c(-c4ccc(OCc5ccccc5)cc4)cc(C(=O)N(CCOC)c4ccccc4)c3c2s1` [Compound 78, 8-(4-Benzyloxy-phenyl)-2-ethyl-7-oxo-7H-thieno[2,3-a]quinolizine-10-carboxylic acid (2-methoxy-ethyl)-phenyl-amide], the Emax under setting [1] was determined as 40%.

For `COCCN(Cc1ccccc1)C(=O)c1cc(-c2ccc(Oc3ccccc3)cc2)c(=O)n2ccc3ccsc3c12` [Compound 100, 7--Oxo-8-(4-phenoxy-phenyl)-7H-thieno[2,3-a]quinolizine-10-carboxylic acid benzyl-(2-methoxy-ethyl)-amide], under setting [1], the IC50 came out at 600 nM and the Emax is 100%. On to `CCN(CCOC)C(=O)c1cc(-c2ccc(C)cc2)c(=O)n2ccc3ccsc3c12` [Compound 149, 7--Oxo-8-p-tolyl-7H-thieno[2,3-a]quinolizine-10-carboxylic acid ethyl-(2-methoxy-ethyl)-amide], for which, under setting [1], half-maximal inhibition (IC50) was put at 2400 nM and the Emax is 100%.

With `COCCN(C(=O)c1cc(-c2ccc(OCc3ccccc3)cc2)c(=O)n2ccc3cc(C(=O)O)sc3c12)c1ccccc1` [Compound 80, 8-(4-Benzyloxy-phenyl)-10-[(2-methoxy-ethyl)-phenyl-carbamoyl]-7-oxo-7H-thieno[2,3-a]quinolizine-2-carboxylic acid], under setting [1], the IC50 lay in the range of 1000 to 3000 nM and the Emax was 30 to 70%. On the same counts, the results for `COCCN(C(=O)c1cc(-c2ccc(OC)cc2)c(=O)n2ccc3ccsc3c12)c1ccccc1` [Compound 147, 8-(4-Methoxy-phenyl)-7-oxo-7H-thieno[2,3-a]quinolizine-10-carboxylic acid (2-methoxy-ethyl)-phenyl-amide] are 1500 nM and 100%.

`COCCN(Cc1cccs1)C(=O)c1cc(-c2cccc(OC)c2)c(=O)n2ccc3ccsc3c12` [Compound 125, 8-(3-Methoxy-phenyl)-7-oxo-7H-thieno[2,3-a]quinolizine-10-carboxylic acid (2-methoxy-ethyl)-thiophen-2-yl-methyl-amide]: under setting [1], the midpoint of inhibition, the IC50, lay at 2000 nM and the Emax turned out to be 10%.
